Like-named read-outs stand apart in the source and are kept apart here.
Tests used:
[1] = Plasma Protein Binding, human; assay type: in vitro ADME
[2] = Metabolism in hepatocytes (predicted EH), dog; assay type: in vitro ADME
[3] = In Vitro Metabolism in Human Liver Microsomes (predicted EH); assay type: in vitro ADME
Experimental: (§1) [formula] [formula] [formula] [formula] • Cbrain=concentration of compound in brain parenchyma (ng/g) • Cbrain homogenate=concentration of compound in brain homogenate (ng/g) • Cbrain vasculature=concentration of compound in brain vasculature (ng/g) • CPlasma=concentration of compound in plasma (ng/mL) • VP=brain plasma volume (26 μL/g for male Swiss Outbred mice) • B:P=brain-to-plasma ratio • Papp=apparent permeability coefficient of compound permeating the blood-brain barrier • ∫0^tcplasmadt=concentration of compound in plasma from time zero to 5 min post-dose (equivalent to the 5 min post-dose plasma concentration, assuming no back diffusion from brain to plasma within this time period) • A=surface area of capillaries forming the blood-brain barrier (240 cm^2/g brain weight for mouse) Assay 7 In Vitro Metabolism in Human Liver Microsomes
The solubility of test compounds and their recovery from the incubation media were confirmed prior to the metabolic assay. Metabolic stability was performed by incubating test compounds individually (1 μM) at 37° C. with human liver microsomes. The metabolic reaction was initiated by the addition of a NADPH-regenerating system (i.e. NADPH is the cofactor required for CYP450-mediated metabolism) and quenched at various time points over the incubation period by the addition of acetonitrile. Additional samples with dual co-factors, i.e. NADPH and UDPGA (the co-factor for glucuronidation), were also included in the incubation for the qualitative assessment of the potential for glucuronide formation. The relative loss of parent compound and formation of metabolic products was monitored by LC/MS using a Waters/Micromass LCT mass spectrometer.
Test compound concentration versus time data were fitted to an exponential decay function to determine the first-order rate constant for substrate depletion. In cases where clear deviation from first-order kinetics was evident, only the initial linear portion of the profile was utilised to determine the degradation rate constant (k). Each substrate depletion rate constant was then used to calculate: [1] degradation half-life, [2] an in vitro intrinsic clearance value (CLint,in vitro); [3] a predicted in vivo intrinsic clearance value (CLint); and [4] a predicted in vivo hepatic extraction ratio (EH).
[formula] • The following scaling parameters were assumed for estimating metabolic stability parameters:
Predictions of In Vivo Hepatic Clearance and Hepatic Extraction Ratios:
The microsome-predicted hepatic extraction ratios (EH) obtained based on the relative rate of degradation of the test compound in vitro, lead to test compounds being classified as low (<0.3), intermediate (0.3-0.7), high (0.7-0.95) or very high (>0.95) extraction compounds. The assumptions underlying this classification are stated below.
The use of hepatic microsomes in the prediction of the in vivo hepatic clearance and extraction ratio is based on a number of assumptions (Obach, 1999; Drug Metab. Dispos. 27: 1350-1359):
1) Hepatic (microsomal) metabolic clearance is the major clearance mechanism for compounds in vivo;
2) NADPH-dependent oxidative metabolism predominates over other metabolic routes (i.e. direct conjugative metabolism, reduction, hydrolysis, etc.); and,
3) Rates of metabolism and enzyme activities in vitro are truly reflective of those that exist in vivo.
Calculations of intrinsic clearance are based on the “in vitro […] method” (Obach, 1999), which has two further inherent assumptions:
1) The substrate concentration employed is well below the apparent KM for substrate turnover; and,
2) There is no significant product inhibition, nor is there any mechanism based inactivation of enzyme.
Data should be considered within these terms of reference.

[4] = Metabolism in hepatocytes (predicted EH), rat; assay type: in vitro ADME
[5] = target: T1, CYP2C9 (Homo sapiens, UniProt P11712); assay: CYP450 inhibition, specific substrate approach in human liver microsomes: CYP2C9; assay type: in vitro ADME
T1 construct: using a specific substrate approach in human liver microsomes; from tissue; host or cells: human liver microsomes
T1 sequence (P11712 whole entry): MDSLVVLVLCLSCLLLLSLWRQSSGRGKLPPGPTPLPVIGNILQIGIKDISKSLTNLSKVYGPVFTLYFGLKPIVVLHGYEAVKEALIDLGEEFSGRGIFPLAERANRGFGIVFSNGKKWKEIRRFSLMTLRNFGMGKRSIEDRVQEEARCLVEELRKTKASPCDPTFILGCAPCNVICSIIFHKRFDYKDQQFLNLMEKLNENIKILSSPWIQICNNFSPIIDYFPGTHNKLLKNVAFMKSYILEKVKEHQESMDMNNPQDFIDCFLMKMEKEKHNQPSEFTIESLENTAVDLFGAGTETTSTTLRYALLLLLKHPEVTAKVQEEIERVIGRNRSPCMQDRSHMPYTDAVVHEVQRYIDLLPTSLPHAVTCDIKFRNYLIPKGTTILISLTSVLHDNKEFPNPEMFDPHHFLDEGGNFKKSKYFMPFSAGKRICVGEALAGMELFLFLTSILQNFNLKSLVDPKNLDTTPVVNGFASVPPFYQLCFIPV
Experimental: (§2) CYP450 Isoform Inhibition Using a Specific Substrate Approach
(§3) The present study is a “Tier 2” screen to assess potential enzyme inhibition at a test compound concentration of 20 μM using a specific substrate approach in human liver microsomes.
(§4) The substrate specific enzyme inhibition study relies on the formation of a metabolite that is mediated by a specific CYP450 isoform using human liver microsomes. In the current study, the following reactions were monitored to assess interactions with specific CYP450 isoforms. A known inhibitor of each isoform was included in each assay as a positive control. The following IC50 values have been reported in the literature using equivalent assay conditions for each CYP450 isoform:
(§5) The reaction was initiated by the addition of an NADPH-regenerating system and was quenched by the addition of acetonitrile prior to determining the concentration (and apparent rate of formation) of the specific metabolite by LC/MS.
(§6) The IC50 was deemed to be the concentration at which there was a 50% reduction in the amount of metabolite formed, relative to the maximal extent of formation.

[6] = target: CYP3A4 (Homo sapiens, UniProt P08684); assay: CYP450 inhibition, specific substrate approach in human liver microsomes: CYP3A4; assay type: in vitro ADME; parameters: using a specific substrate approach in human liver microsomes; from tissue; host or cells: human liver microsomes
Chain of CYP3A4 (P08684 2-503): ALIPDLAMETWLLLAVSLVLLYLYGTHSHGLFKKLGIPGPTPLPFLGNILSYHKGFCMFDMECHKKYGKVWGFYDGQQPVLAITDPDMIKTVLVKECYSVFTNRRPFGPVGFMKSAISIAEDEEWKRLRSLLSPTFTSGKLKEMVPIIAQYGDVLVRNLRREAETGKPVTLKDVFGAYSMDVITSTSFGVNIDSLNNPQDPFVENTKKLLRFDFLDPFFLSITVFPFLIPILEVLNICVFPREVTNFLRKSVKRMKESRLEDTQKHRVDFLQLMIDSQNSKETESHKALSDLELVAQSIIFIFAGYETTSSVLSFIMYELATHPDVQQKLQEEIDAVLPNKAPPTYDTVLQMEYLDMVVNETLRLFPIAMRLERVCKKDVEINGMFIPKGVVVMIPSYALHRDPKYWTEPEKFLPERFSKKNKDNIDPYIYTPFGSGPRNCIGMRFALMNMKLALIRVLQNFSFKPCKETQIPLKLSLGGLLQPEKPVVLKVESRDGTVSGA
Experimental: as §2, §3, §4, §5, §6

[7] = target: T2, CYP2C19 (Homo sapiens, UniProt P33261); assay: CYP450 inhibition, specific substrate approach in human liver microsomes: CYP2C19; assay type: in vitro ADME
T2 construct: using a specific substrate approach in human liver microsomes; from tissue; host or cells: human liver microsomes
T2 sequence (P33261 whole entry): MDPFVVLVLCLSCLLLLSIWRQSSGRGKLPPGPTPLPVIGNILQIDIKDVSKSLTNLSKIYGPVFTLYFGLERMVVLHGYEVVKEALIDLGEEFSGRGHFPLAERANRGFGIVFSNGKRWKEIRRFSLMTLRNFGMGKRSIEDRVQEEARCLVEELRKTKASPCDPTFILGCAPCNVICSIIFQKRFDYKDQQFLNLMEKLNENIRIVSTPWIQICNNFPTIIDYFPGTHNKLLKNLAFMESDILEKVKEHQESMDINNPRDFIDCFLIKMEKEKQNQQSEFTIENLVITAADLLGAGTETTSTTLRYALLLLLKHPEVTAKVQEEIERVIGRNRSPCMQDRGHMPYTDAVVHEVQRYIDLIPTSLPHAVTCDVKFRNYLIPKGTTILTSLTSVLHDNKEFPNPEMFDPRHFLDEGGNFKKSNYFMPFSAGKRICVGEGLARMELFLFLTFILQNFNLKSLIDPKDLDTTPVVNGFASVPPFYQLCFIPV
Experimental: as §2, §3, §4, §5, §6

[8] = Blood Brain Barrier Penetration (brain to plasma ratio); assay type: in vivo; conditions: male, Swiss Outbred, mouse, brain and plasma; for Kp at 5 min / Kp at 1 h: 150 μg/mouse, IV, read-out: Brain to Plasma Ratio (IV) (B:P); for Kp at 1 h: at 60 min; for Kp at 0.5 h / Kp at 4 h: Oral dosing, read-out: Brain to Plasma Ratio (B:P); for Kp at 0.5 h: at 30 min; for Kp at 4 h: at 240 min
Excerpt: [formula] [formula] [formula] • CLtotal=total plasma clearance after IV administration • Vdβ=volume of distribution during the elimination phase after IV administration • BA=oral bioavailability • AUCIV=area under the plasma concentration versus time profile from time zero to infinity after IV administration • AUCoral=area under the plasma concentration versus time profile from time zero to infinity after oral administration • β=terminal elimination rate constant after IV administration Assay 6. Blood Brain Barrier Penetration
A bolus injection of each of the test compound (50 μL of a 3 mg/mL aqueous solution containing 40% propylene glycol and 10% ethanol) was administered by tail vein injection to male Swiss Outbred mice (5-7 weeks of age). Alternatively, test compound was orally administered to mice according to standard procedures known to the skilled person.
[…] Mice were anaesthetised approximately 3-4 min prior to blood and brain harvest with an intraperitoneal injection of ketamine and xylazine (133 mg/kg and 10 mg/kg, respectively). The whole brain was placed into pre-weighed polypropylene vials and stored at −20° C. until analysis. On the day of analysis, the whole brain was homogenised in 3 parts of water (on ice to reduce the potential for ex vivo brain degradation) and an aliquot of the brain homogenate and plasma was analysed for compound concentration by LCMS. Standards were prepared by spiking blank brain homogenate and both samples and standards were processed by adding acetonitrile to the tissue homogenate, centrifuging and injecting an aliquot of the supernatant onto the LCMS.
To ensure complete recovery of compound from the brain, brain homogenate was spiked with compound (in 50% acetonitrile:50% water) to a nominal concentration of 500 ng/mL. The concentration of compound in the supernatant was then determined by LCMS and compared to the supernatant concentration when compound was added following precipitation with acetonitrile.
as §1

[9] = midazolam, read-out: CYP3A4-Midazolam IC50
[10] = testosterone, read-out: CYP3A4-Testosterone IC50

Row | Structure (SMILES) | fraction unbound [1] | Metabolism (Predicted EH), Hepatocytes: Dog [2] | Metabolism (Predicted EH), Microsomes: Human [3] | Metabolism (Predicted EH), Hepatocytes: Rat [4] | IC50 [5] [µM] | IC50 ([6]; substrate not stated, read-out: CYP3A4 IC50) [µM] | IC50 [7] [µM] | Kp at 5 min [8] | Kp at 1 h [8] | IC50 [6, 9] [µM] | IC50 [6, 10] [µM] | Kp at 0.5 h [8] | Kp at 4 h [8]
1 | CNCc1nc2c(O)c(Cl)cc(Cl)c2c(=O)n1C [Compound F4161] | 0.043 | Dog = 0.56 | Human <0.2 | Rat = 0.29 | – | – | – | – | – | – | – | – | –
2 | CN(C)Cc1nc2c(O)c(Cl)cc(Cl)c2c(=O)n1CC1CC1 [Compound F4267] | 0.005 | Dog = 0.39 | Human <0.31 | Rat = 0.45 | > 30 | > 30 | > 30 | 3.46 | 2.02 | – | – | – | –
3 | CCn1c(CN(C)C)nc2c(O)c(Cl)cc(Cl)c2c1=O.Cl [Compound F4268] | 0.029 | Dog = 0.49 | Human <0.2 | Rat = 0.30 | > 20 | – | > 20 | 2.96 | 2.63 | ~20 | > 20 | – | –
4 | CN(C)Cc1nc2c(O)c(Cl)cc(Cl)c2c(=O)n1C [Compound F4269, 5,7-Dichloro-2-(dimethylamino)methyl-8-hydroxy-3-methylquinazolin-4(3H)-one] | 0.054 to 0.059 | Dog = 0.54 | Human <0.2 | Rat = 0.35 | > 30 | – | > 30 | 2.96 | 2.12 | > 30 | > 30 | – | –
5 | CCN(CC)Cc1nc2c(O)c(Cl)cc(Cl)c2c(=O)n1CC1CC1 [Compound F4385] | 0.008 to 0.013 | Dog = 0.37 | Human <0.2 | Rat = 0.35 | > 30 | – | > 30 | – | – | 21.5 | > 30 | 0.31 | 0.42
6 | C#CCN(C)Cc1nc2c(O)c(Cl)cc(Cl)c2c(=O)n1CC1CC1 [Compound F4387] | – | – | 0.75 | – | – | – | – | 0.65 | 0.29 | – | – | – | –
7 | Br.CCn1c(CNC)nc2c(O)c(Cl)cc(Cl)c2c1=O [Compound F4486] | – | – | – | – | – | – | – | – | – | – | – | 0.23 | 0.22
8 | CCNCc1nc2c(O)c(Cl)cc(Cl)c2c(=O)n1CC [Compound F4495] | 0.023 to 0.024 | Dog = 0.56 | Human <0.2 | Rat = 0.35 | > 30 | – | > 30 | – | – | > 30 | > 30 | 0.65 | 0.64
9 | Br.CCNCc1nc2c(O)c(Cl)cc(Cl)c2c(=O)n1C [Compound F4496] | – | Dog = 0.66 | Human <0.2 | Rat = 0.35 | > 30 | – | > 30 | – | – | 4.4 | 8.6 | 1.42 | 1.97
